{
  "source": "patent US20090238810A1",
  "about": "“OPHTHALMIC COMPOSITION” (Menicon Co., Ltd., priority 2006, published 2009)",
  "key": {"[1]": {"tested_on": "corneal epithelium of DE mice", "assay": "Histopathologic study: corneal epithelial thickness in DE mice", "assay_type": "in vivo, C57BL/6J mice", "description": "(§1) C57BL/6J mice aged 10 to 12 weeks were used for studies. All the studies were performed in accordance with the ARVO Statement for the Use of Animals in Ophthalmic and Vision Research.\n(§2) The mice were subcutaneously injected with 0.5 mg/0.2 ml of scopolamine hydrobromide four times a day for 5 days. Desiccating environmental stress was created by placing a mouse cage in a blower hood with continuous air flow blower (room temperature of […] and relative humidity of 60%±10%). Tear production of each mouse was evaluated before the treatment, and also evaluated on third and fifth days of the treatment.\n(§3) During the desiccation treatment, one of the eyes of each mouse was treated with eye drops including ApoA1 (Sigma-Aldrich, Japan) or with eye drops including ApoA1 and D-pantethine (Sigma-Aldrich, Japan), while PBS was administrated to the other eye of each mouse as a control. 5 μl of the respective eye drops was administered four times a day during the desiccation treatment for five days. All the ophthalmic compositions were formulated in PBS, and the osmolarity and the pH value of the compositions were adjusted to 290 to 300 mOsm/L and pH 7.4, respectively. […] To prepare one liter of 0.01 M PBS, there are needed the followings:\nMice eyeballs were surgically excised, and fixed with neutral-buffered formalin (10%) and embedded in paraffin. Then, 5 μm thick histological sections were cut and stained with hematoxylin and eosin. […] Microphotometric measurement of the thickness was done by using OB-M, 1/100, micro, AX0001 (Olympus Optical Co. Ltd., Japan). The corneal epithelial thickness was measured to an accuracy of 10 μm.\nIn this EXAMPLE, there were used 6 to 8 corneas of each of the following groups of mice: (a) normal mice, (b) DE mice, (c) DE mice treated with 0.04 w/v % of ApoA1, and (d) DE mice treated with PBS."}, "[2]": {"tested_on": "corneal epithelium of DE mice", "assay": "Corneal fluorescein staining in experimental mouse model of dry eye (DE mice)", "assay_type": "in vivo, C57BL/6J mice", "description": "as §1, §2, §3\nCorneal fluorescein staining was evaluated 10 minutes after topical application of 1 μL of 1% sodium fluorescein (Sigma-Aldrich, Japan) to mouse eyes, which were treated as described above, and examined under a light microscope (Leica Microsystems Inc., Deerfield, USA) and photographed with a digital camera (CAMEDIA, Olympus Optical Co. Ltd., Japan) fitted to the microscope.\nIn TABLES 2 and 3 below, X represents a ratio of an area which was subjected to a punctuate staining to a total area of a cornea."}, "[3]": {"conditions": "DE mice, various concentrations"}},
  "data": [
    {"substance": "apolipoprotein A-1 [ApoA1]", "values": [
      {"measurement": "most effective concentration of ApoA1, corneal epithelial thickness", "setting": "[1]; 0.01, 0.04, 0.1 w/v % ApoA1 tested, DE mice (FIG. 15)", "value": 0.1, "unit": "w/v %"},
      {"measurement": "thinning of the cell layers accompanied by detachment of the corneal epithelium", "setting": "[1]; DE mice treated with 0.04 w/v % ApoA1 vs PBS (FIGS. 12 and 13)", "value": "significantly greater in the PBS-treated eyes compared with the ApoA1-treated eyes"},
      {"measurement": "conclusion of corneal epithelial thickness experiments: restriction of thinning of corneal epithelium", "setting": "[1]; [3]", "value": "extremely effective"},
      {"measurement": "most effective concentration of ApoA1, corneal staining scores", "setting": "[2]; 0.01, 0.04 or 0.1 w/v % ApoA1 tested, DE mice (FIG. 10)", "value": 0.1, "unit": "w/v %"},
      {"measurement": "conclusion of corneal fluorescein staining experiments: effect on dry eye syndrome", "setting": "[2]; [3]", "value": "significantly effective"},
      {"measurement": "average corneal staining score, less than that of the PBS group", "setting": "[2]; eye drops 0.04 w/v % ApoA1, 5 μl four times a day for five days, six DE mice, other eye PBS (FIG. 8)", "value": "about 25%"},
      {"measurement": "effect on corneal epithelium erosion due to desiccation (grading scores and quantitative measurement)", "setting": "[2]; eye drops 0.04 w/v % ApoA1, DE mice", "value": "protective effects"},
      {"measurement": "quantitative measurement of fluorescein stained area (NIH ImageJ), average score less than that of the PBS group", "setting": "[2]; eye drops 0.04 w/v % ApoA1, DE mice, data not shown", "value": 20, "unit": "%"}
    ]}
  ]
}
